Data taken from patent US20080090734A1, “DRUG SCREENING AND TARGET IDENTIFICATION USING SPR IMAGING OF TARGET PROTEIN ARRAYS” (The Trustees of California State University, priority 2006, published 2008).

Assays:
Assay in all cases: Antibiotic susceptibility profile
Format in all cases: cell-based, Acinetobacter baumannii
Set-up in all cases: key: Resistance; Intermediate; Susceptible
[1] = test system: A. baumannii clinical isolate LAC 19
Description: (§1) We obtained over thirty clinical isolates of A. baumannii from nosocomial infections in New York City and Los Angeles. […] Only antibiotics with breakpoints for A. baumannii were used. […] Isolates LA 01 to 20 were acquired from Los Angels County while NY-A to NY-H were obtained from New York City.
(§2) Antibiotic susceptibility profiles of clinical isolates of A. baumannii and reference strains. R, I, and S denote Resistance, Intermediate and Susceptible, respectively. Genetic Profiling of Clinical Isolates of A. baumannii

[2] = test system: A. baumannii clinical isolate NY H
Description: as §1, §2

[3] = test system: A. baumannii clinical isolate LAC 18
Description: as §1, §2

[4] = test system: A. baumannii clinical isolate LAC 07
Description: as §1, §2

[5] = test system: A. baumannii clinical isolate LAC 15
Description: as §1, §2

[6] = test system: A. baumannii clinical isolate LAC 16
Description: as §1, §2

[7] = test system: A. baumannii clinical isolate LAC 02
Description: as §1, §2

[8] = test system: A. baumannii clinical isolate LAC 04
Description: as §1, §2

[9] = test system: A. baumannii clinical isolate LAC 12
Description: as §1, §2

[10] = test system: A. baumannii clinical isolate LAC 13
Description: as §1, §2

[11] = test system: A. baumannii clinical isolate NY D
Description: as §1, §2

[12] = test system: A. baumannii clinical isolate NY C
Description: as §1, §2

[13] = test system: A. baumannii reference strain SDF
Description: as §1, §2

[14] = test system: A. baumannii clinical isolate LAC 06
Description: as §1, §2

[15] = test system: A. baumannii clinical isolate LAC 01
Description: as §1, §2

[16] = test system: A. baumannii clinical isolate NY G
Description: as §1, §2

[17] = test system: A. baumannii clinical isolate NY F
Description: as §1, §2

[18] = test system: A. baumannii reference strain 19606; conditions: strain 19606 (ATCC)
Description: as §1, §2

[19] = test system: A. baumannii clinical isolate LAC 05
Description: as §1, §2

[20] = test system: A. baumannii clinical isolate LAC 10
Description: as §1, §2

[21] = test system: A. baumannii reference strain 15839; conditions: strain 15839 (ATCC)
Description: as §1, §2

[22] = test system: A. baumannii reference strain AYE
Description: as §1, §2

[23] = test system: A. baumannii clinical isolate NY B
Description: as §1, §2

[24] = test system: A. baumannii clinical isolate LAC 14
Description: as §1, §2

[25] = test system: A. baumannii clinical isolate LAC 17
Description: as §1, §2

[26] = test system: A. baumannii reference strain 17978; conditions: strain 17978 (ATCC)
Description: as §1, §2

[27] = test system: A. baumannii clinical isolate LAC 20
Description: as §1, §2

[28] = test system: A. baumannii clinical isolate NY A
Description: as §1, §2

[29] = test system: A. baumannii clinical isolate NY E
Description: as §1, §2

[30] = test system: A. baumannii clinical isolate LAC 09
Description: as §1, §2

[31] = test system: A. baumannii clinical isolate LAC 08
Description: as §1, §2

[32] = test system: A. baumannii clinical isolate LAC 03
Description: as §1, §2

[33] = test system: A. baumannii clinical isolate LAC 11
Description: as §1, §2

Row | Structure (SMILES) | Antibiotic susceptibility [1] | Antibiotic susceptibility [2] | Antibiotic susceptibility [3] | Antibiotic susceptibility [4] | Antibiotic susceptibility [5] | Antibiotic susceptibility [6] | Antibiotic susceptibility [7] | Antibiotic susceptibility [8] | Antibiotic susceptibility [9] | Antibiotic susceptibility [10] | Antibiotic susceptibility [11] | Antibiotic susceptibility [12] | Antibiotic susceptibility [13] | Antibiotic susceptibility [14] | Antibiotic susceptibility [15] | Antibiotic susceptibility [16] | Antibiotic susceptibility [18] | Antibiotic susceptibility [19] | Antibiotic susceptibility [20] | Antibiotic susceptibility [21] | other results
1 | NCC[C@H](O)C(=O)N[C@@H]1C[C@H](N)[C@@H](O[C@H]2O[C@H](CN)[C@@H](O)[C@H](O)[C@H]2O)[C@H](O)[C@H]1O[C@H]1O[C@H](CO)[C@@H](O)[C@H](N)[C@H]1O [AMK, Amikacin] | R | R | I | R | R | R | I | I | S | S | R | R | S | S | S | S | S | R | R | R | Antibiotic susceptibility [17]: R; Antibiotic susceptibility [22]: R; Antibiotic susceptibility [23]: I; Antibiotic susceptibility [24]: S; Antibiotic susceptibility [25]: I; Antibiotic susceptibility [26]: S; Antibiotic susceptibility [27]: I; Antibiotic susceptibility [28]: I; Antibiotic susceptibility [29]: S; Antibiotic susceptibility [30]: R; Antibiotic susceptibility [31]: I; Antibiotic susceptibility [32]: I; Antibiotic susceptibility [33]: S
2 | CC(C)(O/N=C(\C(=O)N[C@@H]1C(=O)N2C(C(=O)[O-])=C(C[n+]3ccccc3)CS[C@H]12)c1csc(N)n1)C(=O)O [CAZ, Ceftazidime] | R | R | R | R | R | R | R | R | R | R | R | R | S | S | R | R | S | I | R | R | Antibiotic susceptibility [17]: R; Antibiotic susceptibility [22]: R; Antibiotic susceptibility [23]: R; Antibiotic susceptibility [24]: R; Antibiotic susceptibility [25]: R; Antibiotic susceptibility [26]: S; Antibiotic susceptibility [27]: R; Antibiotic susceptibility [28]: R; Antibiotic susceptibility [29]: R; Antibiotic susceptibility [30]: R; Antibiotic susceptibility [31]: I; Antibiotic susceptibility [32]: R; Antibiotic susceptibility [33]: R
3 | C[C@H]1COc2c(N3CCN(C)CC3)c(F)cc3c(=O)c(C(=O)O)cn1c23 [LVX, Levofloxacin] | I | I | R | R | R | R | I | S | R | R | R | R | S | S | I | R | S | R | R | R | Antibiotic susceptibility [22]: I; Antibiotic susceptibility [23]: R; Antibiotic susceptibility [24]: R; Antibiotic susceptibility [25]: R; Antibiotic susceptibility [26]: S; Antibiotic susceptibility [27]: R; Antibiotic susceptibility [28]: I; Antibiotic susceptibility [29]: R; Antibiotic susceptibility [30]: R; Antibiotic susceptibility [31]: R; Antibiotic susceptibility [32]: R; Antibiotic susceptibility [33]: R
4 | CN(C)c1ccc(O)c2c1C[C@H]1C[C@H]3[C@H](N(C)C)C(O)=C(C(N)=O)C(=O)[C@@]3(O)C(O)=C1C2=O [MIN, Minocycline] | S | S | S | S | S | S | S | S | R | R | S | S | S | S | S | S | S | S | S | S | Antibiotic susceptibility [22]: S; Antibiotic susceptibility [23]: R; Antibiotic susceptibility [24]: R; Antibiotic susceptibility [25]: S; Antibiotic susceptibility [26]: S; Antibiotic susceptibility [27]: S; Antibiotic susceptibility [28]: S; Antibiotic susceptibility [29]: I; Antibiotic susceptibility [30]: S; Antibiotic susceptibility [31]: S; Antibiotic susceptibility [32]: S; Antibiotic susceptibility [33]: R
